Experimental data as given in patent publication US20150087697A1, “COMPOSITIONS AND METHODS FOR THE TREATMENT OF MUSCLE PAIN” (priority 2012, published 2015).

Experiment: in vivo
Conditions: rat, iv, 30 μg/min/kg

Molecule `CC/C=C\C/C=C\C/C=C\C/C=C\C/C=C\CCCC(=O)OCCN(CC)CCOC(c1ccccc1)c1ccccc1` [Formula I (compound 1-4)] has a half-life (brain (striatum microdialysate, unbound drug)) of 49.1 ± 7.3 min and a half-life (plasma (femoral vein microdialysate, unbound drug)) of 67.6 ± 1.4 min.
